Reference: patent publication US6242425A, “Quinolinone glycoside, production process, and anti-allergic agent” (Dainippon Ink and Chemicals, Inc., priority 1998, dated 2001)

Tests used:
[1] = tested on: delayed type asthmatic response; assay: Effect on experimental delayed type asthma model in guinea pigs (airway resistance); assay type: in vivo, guinea pig (male hartley guinea pigs); conditions: AUC of airway resistance change 4-8 hours after challenge
Excerpt: (§1) Effect on experimental immediate and delayed type asthma model in guinea pigs
(§2) The asthma is typical allergic disease and we carried out this pharmacological test by experimental asthmatic model in guinea pigs in order to confirm that the compounds of the present invention, compound 14, 16, 20, 26 and 32, suppress immediate and delayed type asthmatic response. In the following, the method of the pharmacological test will be explained.
(§3) Method: Male hartley guinea pigs were sensitized by exposured aerosolized ovalbumine (OVA) (1% in saline) for 10 minutes per a day at eight times. The aerosol was generated by an ultrasonic nebulizer (NE-U12, Omron inc.). One week after final sensitization, the animals were challenged with inhalation of OVA (2% in saline) for 5 minutes. The animals were pretreated with metyrapone (10 mg/kg, i.v.) at 1 and 4 hours before the challenge, and pyrilamine (10 mg/kg, i.p.) at 30 minutes before the challenge. airway resistance in the conscious animals were measured for 1 minute with PULMOS-1 (made in Medical Interface Project Station Inc.) at 1 minute, 2, 4, 5, 6, 7, 8 and 23 to 24 hours after the challenge. Compound 14, 16, 20, 26 and 32 (test compound) suspended in 0.5% methylcellulose (MC) solution were given i.v. at doses of 0.2 and 0.5 mg/kg 1 hour before and 3 hours after the challenge. As a positive control group, Prednisolone was given orally at a dose of 10 mg/kg 2 hours and 16 hours before the challenge. As vehicle control group, only 0.5% MC solution was given orally.
(§4) The evaluation of the effect of the compounds on immediate and delayed type asthmatic response was undertaken with percentage of change in airway resistance 1 minute after the challenge and the area under the response curve for percentage of change in airway resistance between 4 and 8 hours after the challenge, respectively.
(§5) The inhibition (%) of the compounds for immediate and delayed type asthmatic response was calculated according to equation 2 and the result was shown in table 2. Each experimental group consisted of 8 guinea pigs.
(§6) Inhibition (%)=(A-B)/A×100
(§7) A: percentage of change in airway resistance in vehicle control group
(§8) B: percentage of change in airway resistance in test compound group or positive control group

[2] = tested on: immediate type asthmatic response; assay: Effect on experimental immediate type asthma model in guinea pigs (airway resistance); assay type: in vivo, guinea pig (male hartley guinea pigs); conditions: airway resistance 1 minute after challenge
Excerpt: as §1, §2, §3, §4, §5, §6, §7, §8

[3] = tested on: homologous passive cutaneous anaphylaxis (PCA) reaction in rats; assay: Effect on homologous passive cutaneous anaphylaxis (PCA) reaction in rats; assay type: in vivo, rat (male wistar rats); conditions: vs vehicle control
Method: Effect on homologous passive cutaneous anaphylaxis (PCA) reaction in rats
This experimental animal model is caused by immediate type allergic reaction, namely, antigen-antibody reaction. In the following, the method of this pharmacological test will be explained.
Method: Male wistar rats (9 weeks old) were intradermally administered 0.05 ml of anti-serum against dinitrophenylated ascaris (DNP-As) into two sites on the shaved dorsal skin. 48 hours later, glycosyloxyquinolinone derivatives (test compounds) suspended in 0.5% methylcellulose (MC) were given i.v. at a dose of 0.5 mg/kg to the animals. 1 hour after administration of Test compounds, the animals were induced anaphylaxis by injection of saline (1 ml) dissolving 1 mg of trinitrophenylated ascaris (TNP-As) and 5 mg of Evans Blue into the tail vein of the animals. 30 minutes after induction of anaphylaxis, animals were anesthetized by ether and killed by bleeding, and were flayed dorsal skin. The leakage of dye was assessed by measuring the diameter (mean of shortest and longest diameter) of the blue spot on the inside surface of dorsal skin. As vehicle control group, only 0.5% MC solution was administered orally, and as positive control group, Tranilast suspended in 0.5% MC were administered orally at a dose of 100 mg/kg to the animals with the same method as the test compounds groups. Each experimental group consisted of 5 rats.
In the conditions of this experiment, it was considered that the compound, which inhibited PCA reaction by over forty (40) percent against that in vehicle control group, was evidently effective for immediate type allergy.
as §6
A: leakage of dye in vehicle control group
B: leakage of dye in test compound group or positive control group

[4] = 0.2 mg/kg i.v., 1 hour before and 3 hours after challenge
[5] = 0.5 mg/kg i.v., 1 hour before and 3 hours after challenge
[6] = 0.5 mg/kg i.v., 1 hour before challenge
[7] = positive control, 10 mg/kg orally, 2 and 16 hours before challenge

Row | Compound | delayed type asthma inhibition (%) [1, 4] [%] | delayed type asthma inhibition (%) [1, 5] [%] | immediate type asthma inhibition % [2, 4] [%] | immediate type asthma inhibition % [2, 5] [%] | inhibition (%) of PCA reaction [3, 6] [%] | other results
1 | CCCCCCCCOc1c(O[C@@H]2O[C@H](C(=O)O)[C@@H](O)[C@H](O)[C@H]2O)c2ccc(NC(=O)/C=C/c3cc(OC)c(O[C@@H]4O[C@H](C(=O)O)[C@@H](O)[C@H](O)[C@H]4O)c(OC)c3)cc2n(C)c1=O [Compound 14] | 64 | 73 | 29 | 37 | 54 | –
2 | CCCCCCCCOc1c(O)c2ccc(NC(=O)/C=C/c3cc(OC)c(O[C@@H]4O[C@H](C(=O)O)[C@@H](O)[C@H](O)[C@H]4O)c(OC)c3)cc2n(C)c1=O [Compound 15, 7-[3,5-dimethoxy-4-(β-D-glucuropyranosyloxy)cinnamoyl]amino-3-octyloxy-4-hydroxy-1-methyl-2(1H)-quinolinone] | – | – | – | – | 42 | –
3 | CCCCCCCCOc1c(O[C@@H]2O[C@H](C(=O)O)[C@@H](O)[C@H](O)[C@H]2O)c2ccc(NC(=O)/C=C/c3cc(OC)c(O)c(OC)c3)cc2n(C)c1=O [Compound 16, 7-(3,5-dimethoxy-4-hydroxycinnamoyl)amino-3-octyloxy-4-(β-D-glcuropyranosyloxy)-1-methyl-2(1H)-quinolinone] | 42 | 51 | 22 | 26 | 41 | –
4 | CCCCCCCCOc1c(O[C@@H]2O[C@H](CO)[C@@H](O)[C@H](O)[C@H]2O)c2ccc(NC(=O)/C=C/c3cc(OC)c(O[C@@H]4O[C@H](CO)[C@@H](O)[C@H](O)[C@H]4O)c(OC)c3)cc2n(C)c1=O [Compound 20, 7-[3,5-dimethoxy-4-(β-D-glucopyranosyloxy)cinnamoyl]amino-3-octyloxy-4-(β-D-glucopyranosyloxy)-1-methyl-2(1H)-quinolinone] | 57 | 61 | 27 | 38 | 49 | –
5 | CCCCCCCCOc1c(O)c2ccc(NC(=O)/C=C/c3cc(OC)c(O[C@@H]4O[C@H](CO)[C@@H](O)[C@H](O)[C@H]4O)c(OC)c3)cc2n(C)c1=O [Compound 21, 7-[3,5-dimethoxy-4-(β-D-glucopyranosyloxy)cinnamoyl]amino-3-octyloxy-4-hydroxy-1-methyl-2(1H)-quinolinone] | – | – | – | – | 46 | –
6 | CCCCCCCCOc1c(O[C@@H]2O[C@H](CO)[C@@H](O)[C@H](O)[C@H]2O)c2ccc(NC(=O)/C=C/c3cc(OC)c(O)c(OC)c3)cc2n(C)c1=O [Compound 22, 7-(3,5-dimethoxy-4-hydroxycinnamoyl)amino-3-octyloxy-4-(β-D-glucopyranosyloxy)-1-methyl-2(1H)-quinolinone] | – | – | – | – | 42 | –
7 | CCCCCCCCOc1c(O[C@@H]2O[C@H](CO)[C@H](O)[C@H](O)[C@H]2O)c2ccc(NC(=O)/C=C/c3cc(OC)c(O[C@@H]4O[C@H](CO)[C@H](O)[C@H](O)[C@H]4O)c(OC)c3)cc2n(C)c1=O [Compound 26, 7-[3,5-dimethoxy-4-(β-D-galactopyranosyloxy)cinnamoyl]amino-3-octyloxy-4-(β-D-galactopyranosyloxy)-1-methyl-2(1H)-quinolinone] | 52 | 63 | 25 | 37 | 50 | –
8 | CCCCCCCCOc1c(O)c2ccc(NC(=O)/C=C/c3cc(OC)c(O[C@@H]4O[C@H](CO)[C@H](O)[C@H](O)[C@H]4O)c(OC)c3)cc2n(C)c1=O [Compound 27, 7-[3,5-dimethoxy-4-(β-D-galactopyranosyloxy)cinnamoyl]amino-3-octyloxy-4-hydroxy-1-methyl-2(1H)-quinolinone] | – | – | – | – | 46 | –
9 | CCCCCCCCOc1c(O[C@@H]2O[C@H](CO)[C@H](O)[C@H](O)[C@H]2O)c2ccc(NC(=O)/C=C/c3cc(OC)c(O)c(OC)c3)cc2n(C)c1=O [Compound 28, 7-(3,5-dimethoxy-4-hydroxycinnamoyl)amino-3-octyloxy-4-(β-D-galactopyranosyloxy)-1-methyl-2(1H)-quinolinone] | – | – | – | – | 43 | –
10 | CCCCCCCCOc1c(O[C@H]2O[C@H](CO)[C@@H](O)[C@H](O)[C@@H]2O)c2ccc(NC(=O)/C=C/c3cc(OC)c(O[C@H]4O[C@H](CO)[C@@H](O)[C@H](O)[C@@H]4O)c(OC)c3)cc2n(C)c1=O [Compound 32, 7-[3,5-dimethoxy-4-(α-D-mannopyranosyloxy)cinnamoyl]amino-3-octyloxy-4-(α-D-mannopyranosyloxy)-1-methyl-2(1H)-quinolinone] | 49 | 57 | 26 | 34 | 45 | –
11 | CCCCCCCCOc1c(O)c2ccc(NC(=O)/C=C/c3cc(OC)c(O[C@H]4O[C@H](CO)[C@@H](O)[C@H](O)[C@@H]4O)c(OC)c3)cc2n(C)c1=O [Compound 33, 7-[3,5-dimethoxy-4-(α-D-mannopyranosyloxy)cinnamoyl]amino-3-octyloxy-4-hydroxy-1-methyl-2(1H)-quinolinone] | – | – | – | – | 40 | –
12 | CCCCCCCCOc1c(O[C@H]2O[C@H](CO)[C@@H](O)[C@H](O)[C@@H]2O)c2ccc(NC(=O)/C=C/c3cc(OC)c(O)c(OC)c3)cc2n(C)c1=O [Compound 34, 7-(3,5-dimethoxy-4-hydroxycinnamoyl)amino-3-octyloxy-4-(α-D-mannopyranosyloxy)-1-methyl-2(1H)-quinolinone] | – | – | – | – | 42 | –
13 | C[C@]12C=CC(=O)C=C1CC[C@@H]1[C@@H]2[C@@H](O)C[C@@]2(C)[C@H]1CC[C@]2(O)C(=O)CO [Prednisolone, reference compound] | – | – | – | – | – | delayed type asthma inhibition (%) [1, 7]: 69%; immediate type asthma inhibition % [2, 7]: 27%
14 | COc1ccc(/C=C/C(=O)Nc2ccccc2C(=O)O)cc1OC [Tranilast, reference compound] | – | – | – | – | – | inhibition (%) of PCA reaction ([3]; positive control, 100 mg/kg orally): 52%
